Reference: ChEMBL document CHEMBL3758137 (Eur J Med Chem, 2016)

Tests used:
[1] = molecular target: T1, Tyrosine-protein kinase receptor TYRO3 (Homo sapiens, UniProt Q06418); assay: Inhibition of recombinant human TyrO3 using poly (Glu,Tyr)4:1 as substrate after 60 mins by ELISA
T1 sequence (Q06418 whole entry): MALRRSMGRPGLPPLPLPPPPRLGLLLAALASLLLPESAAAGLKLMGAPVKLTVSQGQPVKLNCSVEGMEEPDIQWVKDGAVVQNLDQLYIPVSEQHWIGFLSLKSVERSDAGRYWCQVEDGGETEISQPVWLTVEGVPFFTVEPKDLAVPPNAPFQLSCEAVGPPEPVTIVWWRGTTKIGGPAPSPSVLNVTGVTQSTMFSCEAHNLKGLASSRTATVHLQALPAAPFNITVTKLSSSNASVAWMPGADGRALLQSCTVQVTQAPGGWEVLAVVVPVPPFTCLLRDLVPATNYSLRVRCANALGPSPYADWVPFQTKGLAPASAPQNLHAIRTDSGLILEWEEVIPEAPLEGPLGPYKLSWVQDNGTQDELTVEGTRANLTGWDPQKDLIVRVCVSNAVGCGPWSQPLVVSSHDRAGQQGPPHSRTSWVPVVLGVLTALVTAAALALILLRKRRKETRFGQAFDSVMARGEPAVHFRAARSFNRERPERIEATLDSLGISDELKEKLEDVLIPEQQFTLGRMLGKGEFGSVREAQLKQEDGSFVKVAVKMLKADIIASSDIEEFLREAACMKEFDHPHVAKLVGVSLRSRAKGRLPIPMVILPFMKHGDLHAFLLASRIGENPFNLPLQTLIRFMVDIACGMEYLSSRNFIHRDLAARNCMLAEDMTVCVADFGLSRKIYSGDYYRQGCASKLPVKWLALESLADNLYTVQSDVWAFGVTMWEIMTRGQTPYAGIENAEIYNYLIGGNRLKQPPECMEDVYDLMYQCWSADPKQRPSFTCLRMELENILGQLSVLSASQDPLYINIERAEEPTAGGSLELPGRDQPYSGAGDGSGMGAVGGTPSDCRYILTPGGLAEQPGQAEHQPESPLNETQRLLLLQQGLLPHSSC

[2] = molecular target: T2, Tyrosine-protein kinase receptor UFO (Homo sapiens, UniProt P30530); assay: Inhibition of recombinant human Axl using poly (Glu,Tyr)4:1 as substrate after 60 mins by ELISA
T2 sequence (P30530 whole entry): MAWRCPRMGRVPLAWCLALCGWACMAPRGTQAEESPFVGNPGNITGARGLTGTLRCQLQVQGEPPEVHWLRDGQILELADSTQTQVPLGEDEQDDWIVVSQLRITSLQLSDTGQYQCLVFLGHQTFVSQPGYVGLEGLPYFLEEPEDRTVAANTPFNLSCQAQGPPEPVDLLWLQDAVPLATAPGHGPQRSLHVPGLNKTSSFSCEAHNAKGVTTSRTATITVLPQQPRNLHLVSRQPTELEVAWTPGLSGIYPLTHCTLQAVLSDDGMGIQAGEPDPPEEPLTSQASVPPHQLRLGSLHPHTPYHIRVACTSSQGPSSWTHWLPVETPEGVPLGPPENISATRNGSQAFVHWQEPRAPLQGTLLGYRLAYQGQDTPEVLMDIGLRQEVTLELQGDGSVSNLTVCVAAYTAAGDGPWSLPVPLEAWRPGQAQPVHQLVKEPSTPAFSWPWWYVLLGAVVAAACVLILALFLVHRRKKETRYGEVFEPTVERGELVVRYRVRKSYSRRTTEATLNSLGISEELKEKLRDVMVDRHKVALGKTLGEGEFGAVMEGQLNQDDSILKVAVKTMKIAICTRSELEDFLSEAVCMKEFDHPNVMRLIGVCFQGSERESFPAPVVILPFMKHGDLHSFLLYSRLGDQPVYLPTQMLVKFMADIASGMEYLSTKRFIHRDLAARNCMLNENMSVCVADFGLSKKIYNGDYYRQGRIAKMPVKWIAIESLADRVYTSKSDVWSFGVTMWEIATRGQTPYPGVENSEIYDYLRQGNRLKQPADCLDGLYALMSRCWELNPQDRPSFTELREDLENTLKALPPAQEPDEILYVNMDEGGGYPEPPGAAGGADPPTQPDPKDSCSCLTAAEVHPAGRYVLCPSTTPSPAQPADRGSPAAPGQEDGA

[3] = Solubility of compound in HBSS/HEPES buffer at pH 7.4 by nephelometric analysis in presence of 0.1% BSA; type: physicochemical; conditions: HBSS/HEPES buffer with 0.1% BSA
[4] = Apparent permeability from apical to basolateral side in human Caco2 cells after 35 to 95 mins by LC-MS/MS analysis; type: ADME, cell-based; conditions: Caco-2
[5] = molecular target: T3, Receptor-type tyrosine-protein kinase FLT3 (Homo sapiens, UniProt P36888); assay: Inhibition of recombinant human Flt-3 using poly (Glu,Tyr)4:1 as substrate after 60 mins by ELISA
T3 sequence (P36888 whole entry): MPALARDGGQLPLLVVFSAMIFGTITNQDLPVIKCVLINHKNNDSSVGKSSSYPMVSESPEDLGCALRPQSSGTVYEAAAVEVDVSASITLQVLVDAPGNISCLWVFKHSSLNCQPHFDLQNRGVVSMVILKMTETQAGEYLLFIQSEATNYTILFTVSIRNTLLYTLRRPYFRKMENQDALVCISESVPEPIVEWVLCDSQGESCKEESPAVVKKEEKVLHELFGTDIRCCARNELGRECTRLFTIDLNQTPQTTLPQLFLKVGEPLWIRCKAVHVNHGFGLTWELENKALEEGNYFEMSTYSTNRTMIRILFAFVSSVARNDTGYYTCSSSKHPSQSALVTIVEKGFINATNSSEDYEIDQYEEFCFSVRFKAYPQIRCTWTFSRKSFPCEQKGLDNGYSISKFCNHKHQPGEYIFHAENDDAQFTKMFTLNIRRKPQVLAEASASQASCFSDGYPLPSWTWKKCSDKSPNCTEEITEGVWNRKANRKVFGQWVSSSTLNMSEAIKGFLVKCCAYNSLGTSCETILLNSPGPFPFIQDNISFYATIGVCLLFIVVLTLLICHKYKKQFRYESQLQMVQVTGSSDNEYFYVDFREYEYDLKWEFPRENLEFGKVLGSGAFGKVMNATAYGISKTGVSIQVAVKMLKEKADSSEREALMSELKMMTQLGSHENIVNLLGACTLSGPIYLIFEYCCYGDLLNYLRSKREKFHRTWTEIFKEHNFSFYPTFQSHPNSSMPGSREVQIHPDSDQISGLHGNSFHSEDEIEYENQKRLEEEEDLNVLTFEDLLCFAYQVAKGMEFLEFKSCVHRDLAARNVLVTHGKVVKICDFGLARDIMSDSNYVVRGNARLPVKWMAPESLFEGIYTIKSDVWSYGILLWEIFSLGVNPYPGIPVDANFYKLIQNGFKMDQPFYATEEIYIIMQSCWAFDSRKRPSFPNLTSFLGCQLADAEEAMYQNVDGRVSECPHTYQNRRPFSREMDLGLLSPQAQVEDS

[6] = system: Liver microsome; assay: Intrinsic clearance in rat liver microsomes at 0.1 uM after 7 to 60 mins by LC-MS/MS analysis; type: ADME

Compound: Cn1cc(-c2cnc(Nc3cccc(Cn4nc(-c5cnn(C)c5)ccc4=O)c3)nc2)cn1
- IC50 [1]: > 1000 nM
- IC50 [2]: > 1000 nM
- solubility kinetic [3]: 51 µM
- Papp A→B [4]: 17 ×10⁻⁶ cm/s
- IC50 [5]: > 1000 nM
- CLH [6]: 36 mL/min/g
